How the values were obtained:
[1] = test system: HGFIN mRNA in bone marrow stroma; assay: Northern analysis of HGFIN mRNA in stimulated bone marrow stroma; type: cell-based, human; conditions: bone marrow stroma vs unstimulated
Method: (§1) Cell Stimulation. Peripheral blood mononuclear cells (PBMC) were resuspended in RPMI 1640 containing 2% FCS at 10^6/ml. Cell suspension, 10 ml, was stimulated with 1 μg/ml of LPS. bone marrow stroma was stimulated in sera-free α-MEM (Sigma) with the following: 10 μg/ml SCF, 5 ng/ml IL-11, 5 U/ml […], 5 ng/ml […], 25 ng/ml NGF and […]. Dose-response curves with slot blots for HGFIN mRNA determined the optimal concentration of each stimulus. During stromal cell stimulation, culture media were supplemented with insulin-transferring-selenium-A (Life Technologies, Grand Island, N.Y.). In both types of cells, controls included parallel cultures in similar media. At 8 hours and 16 hours, total RNA was extracted from each experimental point and control and then analyzed by northern analyses for HGFIN mRNA.
(§2) Northern Analysis. Northern analysis for steady state HGFIN mRNA was performed as described (Rameshwar, et al. (1997) J. Immunol. 158:3417-3424). Total RNA was extracted from the experimental cells and 10 μg from each was separated in 1.2% agarose. RNA was transferred to nylon membranes (S & S NYTRAN, Keene, N.H.) and then hybridized with [α-^32P]-dATP-labeled cDNA probes specific for HGFIN or Id2. Membranes were stripped and then reprobed with cDNA for 18S rRNA. Probes were randomly labeled with [α-^32P]-dATP, 3000 Ci/mM, (Dupont/NEN, Boston, Mass.) using the PRIME-IT II random primer kit (Stratagene). The membrane was placed in a PHOSPHOIMAGER cassette (Molecular Dynamics, Sunnyvale, Calif.) and then scanned at different times beginning at 6 hours to 24 hours on a PHOSPHOIMAGER (Molecular Dynamics). Negative results were not attributed to the lack of total RNA on the membrane since each was hybridized with a cDNA probe for 18S rRNA.
The mesenchymal/stromal cells of the bone marrow produce most of the necessary soluble regulators that modulate bone marrow organ functions (Muller-Sieburg & Deryugina (1995) supra). Since HGFIN expression was altered in activated PBMC, the next set of studies examined the role of HGFIN in activated bone marrow stroma. The following stimulators were used: cytokines, SCF, IL-11, IL-1(α, β) and IL-6 and a neurotrophic factor, NGF. […] Densitometric scans were normalized with 18S rRNA and the fold (mean±SD) increase over unstimulated stroma was determined. […] However, together, the levels of HGFIN mRNA in the cytokine-stimulated cultures were much less than in stroma stimulated with NGF.

Oct4 breast cancer cells = assay: Carboplatin treatment of tumors from Oct4 breast cancer cells in mice; type: in vivo, athymic BALB/c mice
Method: As discussed above, female athymic BALB/c mice (4 weeks) were obtained from Harlan Laboratories (Somerville, N.J.) and housed in a laminar flow hood at an AAALAC-accredited facility. The use of mice was approved by the Institutional Animal Care and Use Committee, New Jersey Medical School (Newark, N.J.).
Mice were inoculated with Oct4 cells where HGFIN expression was knocked down with siRNA. The cells were injected in a total volume of 0.2 mL subcutaneously in the dorsal flanks. Tumors were monitored daily and measured in two dimensions with a caliper and volume was calculated using the formula V=πr^2h, where r=radius and h=height. Animal were injected with carboplatin (50 mg/kg) on day 0 and day 3 of the test period. Tumors were palpated and tumor volume was measured every other day for two weeks (i.e., days 0, 2, 4, 6, 8, 10, 12 and 14).

HGFIN mRNA in PBMC = assay: Northern analysis of HGFIN mRNA in stimulated PBMC; type: cell-based, human; conditions: 1 μg/ml LPS
Method: as §1
Northern Analysis. Northern analysis for steady state HGFIN mRNA was performed as described (Rameshwar, et al. (1997) J. Immunol. 158:3417-3424). Total RNA was extracted from the experimental cells and 10 μg from each was separated in 1.2% agarose. […]
As differentiated immune cells express HGFIN, studies were performed to determining if HGFIN was also expressed when these differentiated cells were activated. […] Consistent with HGFIN expression in PBMC, HGFIN mRNA was detected in the unstimulated PBMC.

HGFIN mRNA in HL-60 = assay: Northern analysis of HGFIN mRNA in differentiated HL-60; type: cell-based; conditions: HL-60 differentiated to monocytes (TPA) or granulocytes (DMSO)
Method: (§3) Cell Differentiation. Cell differentiation was performed with a myelomonocytic cell line, HL-60, or bone marrow mononuclear cells (BMNC). HL-60 cells were chemically differentiated with TPA and DMSO for monocytes and granulocytes respectively (Miura, et al. (2000) supra; Hegde, et al. (1999) Blood 94:1578-1589). BMNC were isolated from bone marrow aspirate of healthy donors using FICOLL HYPAQUE density gradient.
as §2, with “The membrane was placed in a PHOSPHOIMAGER cassette (Molecular Dynamics, Sunnyvale, Calif.) and then scanned at different times beginning at 6 hours to 24 hours on a PHOSPHOIMAGER (Molecular Dynamics). Negative results were not attributed to the lack of total RNA on the membrane since each was hybridized with a cDNA probe for 18S rRNA.” left out
HGFIN mRNA was studied in differentiated and undifferentiated HL-60 cells to determine if the expression of this gene was limited to normal bone marrow progenitors. […] Similar to normal progenitors, HGFIN mRNA was detected in differentiated HL-60. […]

HGFIN mRNA in BMNC = assay: Northern analysis of HGFIN mRNA in BMNC cultured with M-CSF or G-CSF; type: cell-based, human
Method: as §3
(§4) Further, BMNC cells were differentiated with M-CSF or G-CSF (500 U/ml for each) to monocytes and granulocytes, respectively. Undifferentiated cells were cultured in parallel with only media. Culture media were replaced at two-day intervals until cytochemical staining determined that >90% of the cells were differentiated. At this time, cell differentiation was terminated and the cells analyzed by northern analyses for Id2 and HGFIN mRNA, and by immunoblot for Id2 protein. For HL-60 cultures, cytochemical staining was performed after three days with 100-200 cells. Beginning at day 5, cells from cultures with BMNC were stained and daily thereafter. Neutrophil and monocyte staining were performed with kits specific for 2-naphthyl-acetate esterase and naphthol AS-D chloroacetate esterase, respectively.
as §2
Since the HGFIN cDNA was isolated from bone marrow cell subsets, bone marrow and PB mononuclear cells were screened using northern analyses to study the expression of HGFIN. […] After the cells were >90% differentiated to monocytes and neutrophils, cells were analyzed for the expression of HGFIN mRNA by northern analyses.
To verify that the expression of HGFIN was not due to activation by the two cytokines, northern analyses were performed with BMNC cultured with M-CSF or G-CSF and then analyzed for HGFIN mRNA before the cells were differentiated.

Id2 in BMNC = assay: Id2 protein in differentiated BMNC; type: cell-based, human
Method: as §4, with “Neutrophil and monocyte staining were performed with kits specific for 2-naphthyl-acetate esterase and naphthol AS-D chloroacetate esterase, respectively.” left out
Western Blots. […] Extracts were centrifuged at 10,000 g for 10 minutes and then determined for total protein concentration using the BIO-RAD Protein Assay kit (BIO-RAD Laboratories, Hercules, Calif.). Extracts (15 Vig) were analyzed by western blot for Id2 protein as described (Rameshwar, et al. (2000) J. Immunol. 165:2271-2277). […] Alk Phos activity was detected with BCIP/NBT substrate System (Kirkeguard & Perry Laboratories, Gaithersburg, Md.). […]
Northern blots were performed in four experiments, each with a different donor. […] However in undifferentiated BMNC (cultured in media alone), Id2 mRNA was detected in each of the four bone marrow donors. […]

[2] = BMNC >90% differentiated to monocytes or neutrophils
[3] = BMNC cultured with cytokine, before the cells were differentiated

For “NGF: nerve growth factor, a neurotrophic factor”, the “HGFIN mRNA induction” value [1] was “induced”.

With `N.N.O=C([O-])C1(C(=O)[O-])CCC1.[Pt+2]` [carboplatin] the “tumor cell volume vs before carboplatin treatment” value (Oct4 breast cancer cells; 50 mg/kg, two weeks after second injection) was “statistically significant decreases” and the “sensitivity of tumors to carboplatin” value (Oct4 breast cancer cells; HGFIN knocked down with siRNA, 50 mg/kg day 0 and day 3, two weeks after second injection) was “more sensitive”.

lipopolysaccharide [LPS] was tested, and the “steady state HGFIN mRNA” value (HGFIN mRNA in PBMC; 8 hours) was “no difference” and the “steady state HGFIN mRNA” value (HGFIN mRNA in PBMC; 16 hours) was “down-regulated”.

12-0-tetradecanoylphorbol diester [TPA] was tested, and the “HGFIN mRNA” value (HGFIN mRNA in HL-60) was “detected”.

SCF: Stem cell factor, cytokine was tested, and the “HGFIN mRNA induction” value [1] was “induced”.

For `C[S+](C)[O-]` [DMSO, dimethylsulfoxide], the “HGFIN mRNA” value (HGFIN mRNA in HL-60) was “detected”.

In the case of IL-6: cytokine, the “HGFIN mRNA induction” value [1] is reported as “induced”.

B1: M-CSF: macrophage colony-stimulation factor (protein, UniProt P09603 33-554, looked up)
Macrophage colony-stimulating …: EEVSEYCSHMIGSGHLQSLQRLIDSQMETSCQITFEFVDQEQLKDPVCYLKKAFLLVQDIMEDTMRFRDNTPNAIAIVQLQELSLRLKSCFTKDYEEHDKACVRTFYETPLQLLEKVKNVFNETKNLLDKDWNIFSKNCNNSFAECSSQDVVTKPDCNCLYPKAIPSSDPASVSPHQPLAPSMAPVAGLTWEDSEGTEGSSLLPGEQPLHTVDPGSAKQRPPRSTCQSFEPPETPVVKDSTIGGSPQPRPSVGAFNPGMEDILDSAMGTNWVPEEASGEASEIPVPQGTELSPSRPGGGSMQTEPARPSNFLSASSPLPASAKGQQPADVTGTALPRVGPVRPTGQDWNHTPQKTDHPSALLRDPPEPGSPRISSLRPQGLSNPSTLSAQPQLSRSHSSGSVLPLGELEGRRSTRDRRSPAEPEGGPASEGAARPLPRFNSVPLTDTGHERQSEGSFSPQLQESVFHLLVPSVILVLLAVGGLLFYRWRRRSHQEPQRADSPLEQPEGSPLTQDDRQVELPV
In the case of B1, the “HGFIN mRNA” value (HGFIN mRNA in BMNC; [2]) is reported as “detectable”, the “HGFIN mRNA” value (HGFIN mRNA in BMNC; [3]) is reported as “no detectable HGFIN mRNA” and the “band for Id2 protein” value (Id2 in BMNC) is reported as “very light to undetectable”.

B2: G-CSF: granulocyte colony-stimulation factor (protein, UniProt P09919 31-207, looked up)
Granulocyte …: TPLGPASSLPQSFLLKCLEQVRKIQGDGAALQEKLVSECATYKLCHPEELVLLGHSLGIPWAPLSSCPSQALQLAGCLSQLHSGLFLYQGLLQALEGISPELGPTLDTLQLDVADFATTIWQQMEELGMAPALQPTQGAMPAFASAFQRRAGGVLVASHLQSFLEVSYRVLRHLAQP
With B2 the “HGFIN mRNA” value (HGFIN mRNA in BMNC; [2]) was “detectable”, the “HGFIN mRNA” value (HGFIN mRNA in BMNC; [3]) was “no detectable HGFIN mRNA” and the “band for Id2 protein” value (Id2 in BMNC) was “very light to undetectable”.

B3: IL-11: cytokine (protein, UniProt P20809 22-199, looked up)
Interleukin-11: PGPPPGPPRVSPDPRAELDSTVLLTRSLLADTRQLAAQLRDKFPADGDHNLDSLPTLAMSAGALGALQLPGVLTRLRADLLSYLRHVQWLRRAGGSSLKTLEPELGTLQARLDRLLRRLQLLMSRLALPQPPPDPPAPPLAPPSSAWGGIRAAHAILGGLHLTLDWAVRGLLLLKTRL
With B3 the “HGFIN mRNA induction” value [1] was “induced”.

Source: US8383806B2, “Method of reversing carboplatin resistance by inhibition of HGFIN” (University of Medicine and Dentistry of New Jersey, priority 2000, dated 2013)
